Laboratory results from article PMC5520047, “Prioritizing multiple therapeutic targets in parallel using automated DNA-encoded library screening” (Nature Communications, 2017).
In brackets after ≈: the same amount, converted by molar mass. Like-named read-outs stand apart in the source and are kept apart here.

Assays:
[1] = tested on: Acinetobacter baumannii BM4652 ΔadeABC ΔadeIJK (efflux mutant); assay: MIC broth microdilution; assay type: cell-based
[2] = tested on: Escherichia coli 7623 ΔtolC; assay: MIC broth microdilution; assay type: cell-based
[3] = tested on: Klebsiella pneumoniae 1161486a ΔtolC; assay: MIC broth microdilution; assay type: cell-based
[4] = tested on: Pseudomonas aeruginosa PA0322 Δ(mexAB-oprM) Δ(mexCD-oprJ) Δ(mexEF-oprN); assay: MIC broth microdilution; assay type: cell-based
[5] = tested on: Acinetobacter baumannii ATCC 19606-1 ΔLpxC; assay: MIC broth microdilution; assay type: cell-based; details: ATCC19606
H. influenzae ΔtolC = assay: MIC broth microdilution; assay type: cell-based; details: Haemophilus influenzae
[6] = tested on: Staphylococcus aureus RN4220; assay: MIC broth microdilution; assay type: cell-based; details: S. aureus RN4220 Gram-positive
Experimental: (§1) 409 remaining NADPH to convert resazurin into the fluorescent resorufin14. The assay buffer containing
(§2) 410 81.4 mM Hepes pH 7.8, 300 mM KCl, 0.4 mg/mL BSA was used to make the enzyme addition containing
(§3) 411 1.2 μg/mL Mtb DHFR and 50 μM NADPH. This was added in equal volume (5 μL) to a substrate solution
(§4) 412 composed of 240 µM DHF in H2O and incubated for 50 min. Developing solution was prepared with
(§5) 413 0.045 mM Resazurin and 0.6 U/ml Diaphorase in 200 mM sodium phosphate buffer pH 7.8 and 5 μL was
(§6) 414 added. The experiments were conducted in black 384-well plates (Greiner Catalog # 784076) and all
(§7) 415 liquid additions were conducted using a Multidrop combi (Thermo Scientific). The plate was read on a
(§8) 416 ViewLux following a 10 minute delay. Resorufin light production was measured using appropriate
(§9) 417 Viewlux filters: Ex: 525 / 20 Pol (BODIPY TMR FP) Em: 598 / 25 (BODIPY TMR) (B04). Assay plates were
(§10) 418 pre-dispensed with 100 nL DMSO or with 100 nL compounds dissolved in neat DMSO using an Echo®
(§11) 419 liquid handler (Labcyte Inc.) where all wells contained compound samples, except wells in columns 6
420 and 18 that contained DMSO control. Column 6 represented 100% Mtb DHFR activity in the absence of […]
424 were calculated using the n-1 method. […]
(§12) 440 saline). […] Fluorescence was measured (Spectramax M5 […]
(§13) 444 Minimum inhibitory concentrations (MICs) of compounds were determined using broth microdilution […]

[7] = tested on: E. coli TOP10 ∆TolC, pHN678’ and pHN678’-LolA antisense; assay: MoA study: MIC in lolA antisense expressor; assay type: cell-based, Escherichia coli; details: for MIC: Escherichia coli
[8] = biological target: M. tuberculosis Dihydrofolate reductase (DHFR) (Mycobacterium tuberculosis, UniProt P9WNX1); assay: biochemical
Sequence of M. tuberculosis Dihydrofolate reductase (DHFR) (P9WNX1 whole entry): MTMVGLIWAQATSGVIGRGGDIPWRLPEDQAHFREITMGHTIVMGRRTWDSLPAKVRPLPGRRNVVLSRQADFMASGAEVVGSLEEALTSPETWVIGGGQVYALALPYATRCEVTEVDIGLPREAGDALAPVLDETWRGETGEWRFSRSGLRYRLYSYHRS

M. tuberculosis H37Rv = assay: MIC determination against M. tuberculosis H37Rv (resazurin); assay type: cell-based; details: Mycobacterium tuberculosis
Experimental: as §1, §2, §3, §4, §5, §6, §7, §8, §9, §10, §11
420 and 18 that contained DMSO control. Column 6 represented 100% Mtb DHFR activity in the absence of
421 GSK compounds. […] Compounds were
422 tested at 1% DMSO in 11 point dose response with a 1:3 dilution and fit to a standard 4 parameter fit to
423 calculate an IC50 value and are reported as the average of two replicates. Standard deviation values
424 were calculated using the n-1 method.
428 Minimum Inhibitory Concentration Assays:
429 MIC determination against M. tuberculosis H37Rv:
430 The measurement of the Minimum Inhibitory Concentration (MIC) against M. tuberculosis H37Rv for
431 each tested compound was performed in 96-well flat-bottom, polystyrene microtiter plates in a final
432 volume of 100 μl. Ten two-fold drug dilutions in neat DMSO starting at 50 mM were performed. Drug […]
as §12, §13

[9] = tested on: A. baumannii BM4652 strains; assay: Potentiation of teicoplanin MIC by LpxA compound 4; assay type: cell-based, Acinetobacter baumannii
[10] = E. coli TOP10 ∆TolC + pHN678’-LolA antisense
[11] = M. tuberculosis DHFR, average of two replicates with s.d., read-out: IC50

CCNc1cc(N2CCc3cc(NS(C)(=O)=O)ccc3C2C)nc(-c2cc(F)cc(C#N)c2)n1 (stereo not shown) [Compound 6]
MIC ([1]; A. baumannii BM652 efflux strain): > 128 µg/mL
MIC ([1]; A. baumannii BM4652 ΔadeABC ΔadeIJK efflux mutant): > 128 µg/mL
MIC [2]: > 128 µg/mL
MIC [3]: > 128 µg/mL
MIC [4]: > 128 µg/mL
MIC [5]: 32 µg/mL (≈ 66.6 µM)
MIC (H. influenzae ΔtolC): 2 µg/mL (≈ 4.16 µM)
MIC [6]: > 128 µg/mL
MIC ([7]; E. coli TOP10 ∆TolC + pHN678’): 128 µg/mL
MIC [7, 10]: 4 µg/mL
Fold MIC decrease ([7]; lolA antisense plasmid compared to vector alone): 32 fold

Cc1ccc(S(=O)(=O)NCCN(CCC(N)=O)C(=O)c2cc(O)cc(NC(=O)CN3C(=O)C(C)Oc4ccccc43)c2)cc1 (stereo not shown) [Compound 7]
IC50 [8, 11]: 492 ± 4 nM
MIC (M. tuberculosis H37Rv): 80 µM (≈ 49.9 µg/mL)

COc1ccc(OC)c(Cc2cnc3nc(N)nc(N)c3c2C)c1 [Compound 8]
IC50 [8]: 610 ± 420 nM
MIC (M. tuberculosis H37Rv): 2.5 µM (≈ 0.813 µg/mL)

Cc1cccc(NC(=O)Cc2c(C(=O)O)[nH]c3ccccc23)n1 [Compound 9]
IC50 [8, 11]: 4900 ± 2200 nM
MIC (M. tuberculosis H37Rv): 80 µM (≈ 24.7 µg/mL)

C[C@@H](O)[C@H]1C(=O)N2C(C(=O)O)=C(SCCN=CN)C[C@H]12 [Imipenem]
MIC ([7]; E. coli TOP10 ∆TolC + pHN678’): 1 µg/mL
MIC [7, 10]: 1 µg/mL

teicoplanin
MIC of teicoplanin ([9]; A. baumannii BM4652/pRK415-LpxA, compound 4 at 0 µg/ml): > 64 µg/mL
MIC of teicoplanin ([9]; A. baumannii BM4652/pRK415-LpxA, compound 4 at 4 µg/ml): > 64 µg/mL
MIC of teicoplanin ([9]; A. baumannii BM4652/pRK415-LpxA, compound 4 at 8 µg/ml): > 64 µg/mL
MIC of teicoplanin ([9]; A. baumannii BM4652/pRK415-LpxA, compound 4 at 16 µg/ml): > 64 µg/mL
MIC of teicoplanin ([9]; A. baumannii BM4652/pRK415-LpxA, compound 4 at 32 µg/ml): > 64 µg/mL
MIC of teicoplanin ([9]; A. baumannii BM4652/pRK415-LpxA, compound 4 at 64 µg/ml): > 64 µg/mL
MIC of teicoplanin ([9]; A. baumannii BM4652/pRK415-LpxA, compound 4 at 128 µg/ml): > 64 µg/mL
MIC of teicoplanin ([9]; A. baumannii BM4652/pRK415, compound 4 at 0 µg/ml): > 64 µg/mL
MIC of teicoplanin ([9]; A. baumannii BM4652/pRK415, compound 4 at 4 µg/ml): > 64 µg/mL
MIC of teicoplanin ([9]; A. baumannii BM4652/pRK415, compound 4 at 8 µg/ml): > 64 µg/mL
MIC of teicoplanin ([9]; A. baumannii BM4652/pRK415, compound 4 at 16 µg/ml): > 64 µg/mL
MIC of teicoplanin ([9]; A. baumannii BM4652/pRK415, compound 4 at 32 µg/ml): 0.5 µg/mL
MIC of teicoplanin ([9]; A. baumannii BM4652/pRK415, compound 4 at 64 µg/ml): 0.5 µg/mL
MIC of teicoplanin ([9]; A. baumannii BM4652/pRK415, compound 4 at 128 µg/ml): 0.5 µg/mL
MIC of teicoplanin ([9]; A. baumannii BM4652, compound 4 at 0 µg/ml): > 64 µg/mL
MIC of teicoplanin ([9]; A. baumannii BM4652, compound 4 at 4 µg/ml): > 64 µg/mL
MIC of teicoplanin ([9]; A. baumannii BM4652, compound 4 at 8 µg/ml): > 64 µg/mL
MIC of teicoplanin ([9]; A. baumannii BM4652, compound 4 at 16 µg/ml): 16 µg/mL
MIC of teicoplanin ([9]; A. baumannii BM4652, compound 4 at 32 µg/ml): 0.5 µg/mL
MIC of teicoplanin ([9]; A. baumannii BM4652, compound 4 at 64 µg/ml): 0.5 µg/mL
MIC of teicoplanin ([9]; A. baumannii BM4652, compound 4 at 128 µg/ml): 0.5 µg/mL
